The source of these data is PubChem BioAssay (NCI).

Assay in all cases: NCI tumour cell line growth inhibition, 48 h
The test system of assay [1] is M14 melanoma.
For assay [2], the system named is A549 NSCLC.
Assay [3] deals with SF-295 CNS.
Assay [4] has as its system NCI-H23 lung.
In assay [5] the test system is HCC-2998 colon.
Assay [6] has as its system HOP-62 NSCLC.
In assay [7] the test system is HL-60(TB) leukemia.
Assay [8] concerns U251 CNS.
Assay [9] relates to SN12C renal.
Assay [10] has as its system MCF7 breast.
The test system of assay [11] is EKVX NSCLC.
Assay [12] has as its system PC-3 prostate.
Assay [13] concerns IGROV1 ovarian.

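All cell lines were grown in 96-well plates and treated with compound for 48 hours. The concentration for 50% growth inhibition is given as GI50. TGI denotes the concentration required for complete inhibition of growth.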

Regarding `CC(=O)[O-].[Ni].c1ccc(/C(=N\Nc2ccccn2)c2ccccn2)cc1`, the TGI in assay [1] stood at 17.8 µM; in assay [2], 49.2 µM; in [3] it was 26.8 µM; in [4] it was 28.9 µM; in assay [5], 19.8 µM; in [6], 30.1 µM. Also, the TGI turned out to be 0.61 µM in assay [7]; 22.7 µM in assay [8]; 29.3 µM in assay [9]; 30.7 µM in assay [10]; 55.5 µM in assay [11]; 19.9 µM in assay [12]. The TGI in assay [13] turned out to be 29.7 µM. Besides, the figures for the GI50 in assay [10] and in assay [11] were 6.58 µM and 0.0973 µM, respectively.
Take `CC1(C)O[C@H]2[C@@H]3N=C(c4ccccc4)O[C@@H]3C=C[C@H]2O1`: the TGI in assay [1], in [2], in assay [3], in assay [4], in [5] and in [6] was more than 100 µM each time. Further, the TGI in assay [7], in assay [8], in assay [9], in assay [10], in [11] and in assay [12] was more than 100 µM in each case. This compound also returned a TGI in [13] of more than 100 µM.
`CN(C)CCCNC(=O)c1cc(NC(=O)c2cc(NC(=O)[C@H]3C[C@@H]3C(=O)Nc3cc(C(=O)Nc4cc(C(=O)NCCCN(C)C)n(C)c4)n(C)c3)cn2C)cn1C`: the TGI in [1], in assay [2], in [3], in assay [4], in assay [5] and in assay [6] was more than 100 µM each time. Also, the TGI in assay [7], in assay [8], in assay [9], in assay [10], in assay [11] and in assay [12] was more than 100 µM each time. The compound also showed a TGI in assay [13] of more than 100 µM.
Consider `COc1cc(-c2c3c([nH]c(=O)c2C#N)-c2cc([N+](=O)[O-])ccc2CCC3)cc(OC)c1OC`, for which the TGI is more than 100 µM in assay [1]; 81.8 µM in assay [2]; 33.1 µM in [3]; 45.8 µM in assay [4]; 46.1 µM in assay [5]; 92.2 µM in assay [6]. Further, the TGI in assay [7] was 72.7 µM; in [8], more than 100 µM; in assay [9] it was 46.7 µM; in assay [10] it was 44.5 µM; in assay [11], 70.5 µM; in assay [12] it was more than 100 µM. Further, the TGI in [13] was more than 100 µM.
Consider `CC(=O)Nc1ccc(S(=O)(=O)[N-]C2C(=O)c3ccccc3C(=O)C2[n+]2ccccc2)cc1` (configuration not stated), for which the TGI in assay [1] worked out at 27.4 µM; in assay [2], 39.7 µM; in [3], 28.8 µM; in assay [4] it was 21.5 µM; in [5], 43.6 µM; in [6], 35.3 µM. Also, the TGI in [7] is 40.5 µM; in assay [8], 27.3 µM; in assay [9] it was more than 100 µM; in [10], 31.8 µM; in assay [11] it was more than 100 µM; in assay [12], 46.1 µM. The compound also had a TGI in assay [13] of 30 µM.
As for `COc1cc(CNC(=O)[C@H](Cc2ccc(O)cn2)NC(C)=O)cc(OC)c1`, the TGI in assay [1], in assay [2], in [3], in assay [4], in [5] and in [6] was more than 100 µM throughout. Also, the TGI in assay [7], in [8], in assay [9], in assay [10], in assay [11] and in [12] was more than 100 µM each time. The same compound yielded a TGI in assay [13] of more than 100 µM.
Regarding `O=c1c2ccccc2c2c1c1c3ccccc3c(=O)c1c1c3ccccc3c(=O)c21`, the TGI in [1], in [2], in [3], in assay [4], in [5] and in [6] was more than 100 µM each time. Further, the TGI in [7], in [8], in assay [9], in assay [10], in assay [11] and in assay [12] was more than 100 µM in each case. In [13], this compound returned a TGI of more than 100 µM.
As for `COC1=CC(=O)c2c(O)ccc(O)c2C1=O`, the TGI is 1.89 µM in [1]; 4.09 µM in assay [2]; 4.35 µM in [3]; 9.32 µM in assay [4]; 9.33 µM in assay [5]; 10.9 µM in [6]. In addition, the TGI in assay [7] is 23 µM; in assay [8] it was 22.1 µM; in assay [9], 7.55 µM; in assay [10], 8.02 µM; in assay [11], 37.8 µM; in assay [12], 41.4 µM. In assay [13], the TGI came out at 37.5 µM.
For the compound `O=NNc1cnccn1`, the TGI in assay [1] is more than 1250 µM; in assay [2] it was more than 1250 µM; in assay [3], more than 1250 µM; in [4], more than 1250 µM; in assay [5] it was more than 1250 µM; in [6], 265 µM. Besides, the TGI in assay [7] is more than 852 µM; in assay [8], more than 1250 µM; in assay [9] it was more than 1250 µM; in assay [10], 1240 µM; in assay [11], more than 1250 µM; in assay [12], more than 1250 µM. In addition, the TGI in [13] was more than 1250 µM.
On to `O=c1[nH]cc(N(CCCl)CCCl)c(=O)[nH]1`, for which the TGI in [1] came to 89.9 µM; in [2], 314 µM; in [3], 246 µM; in [4], 97.6 µM; in assay [5], 136 µM; in assay [6], 81.7 µM. In addition, the TGI was 36.9 µM in [7]; 253 µM in assay [8]; 162 µM in assay [9]; 205 µM in assay [10]; 230 µM in assay [11]; 188 µM in [12]. In [13], this compound showed a TGI of 266 µM.
